Where two headings read alike, the source gives them in different places.
Molecular target: T1, HIV-1 protease (Human immunodeficiency virus type 1 group M subtype B, UniProt P04585)
T1 construct: The protease (or proteinase), consisting of only 99 amino acids, is among the smallest enzymes known
Assay: In vitro HIV protease inhibitory assay (HIV Protease FITC Assay)
Assay type: biochemical
Conditions: for inhibition at 0.123 µM / inhibition at 0.37 µM / inhibition at 1.1 µM / inhibition at 3.3 µM / inhibition at 10 µM / inhibition at 30 µM / inhibition at 100 µM: read-out: HIV-1 Protease % Inhib; for inhibition at 100 µM: HIV-1 Dose 100.000 uM
Procedure, shortened: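 Percent inhibition was read as fluorescence after avidin-bead capture and filtration separated FITC cleavage product from biotinylated substrate. Enzyme and substrate reacted 1 h, RT, dark, at pH 5.5 (0.1 M sodium acetate, 1.0 M NaCl, 0.05% NP-40).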

| Compound | inhibition at 0.123 µM (HIV-1 Dose 0.123 uM) [%] | inhibition at 0.37 µM (HIV-1 Dose 0.370 uM) [%] | inhibition at 1.1 µM (HIV-1 Dose 1.100 uM) [%] | inhibition at 3.3 µM (HIV-1 Dose 3.300 uM) [%] | inhibition at 10 µM (HIV-1 Dose 10.000 uM) [%] | inhibition at 30 µM (HIV-1 Dose 30.000 uM) [%] | inhibition at 100 µM [%] | Ki (read-out: HIV-1 FITC Ki) [nM] | inhibition at 0.123 µM [%] | inhibition at 0.37 µM [%] | inhibition at 1.1 µM [%] | inhibition at 3.3 µM [%] | inhibition at 10 µM [%] | inhibition at 30 µM [%] | Ki [nM] |
| --- | --- | --- | --- | --- | --- | --- | --- | --- | --- | --- | --- | --- | --- | --- | --- |
| CCC(Cc1ccc(Br)cc1)c1cc(O)c(C(c2ccccc2)C2CC2)c(=O)o1 (stereo not drawn) [Example 158, 3-(α-cyclopropylbenzyl)-4-hydroxy-6-(α-ethyl-p-bromophenethyl)-2H-pyran-2-one] | 15.7 | 44.2 | 70.5 | 87 | 100 | 96.1 | 115 | 55 |  |  |  |  |  |  |  |
| CCC(Cc1cccc(Br)c1)c1cc(O)c(C(c2ccccc2)C2CC2)c(=O)o1 (stereo not drawn) [Example 159, 3-(α-cyclopropylbenzyl)-4-hydroxy-6-(α-ethyl-m-bromophenethyl)-2H-pyran-2-one] | < 10 | 20.6 | 56.4 | 76.2 | 92.3 | 95.1 |  | 207 |  |  |  |  |  |  |  |
| CCC(Cc1ccc(C(F)(F)F)cc1)c1cc(O)c(C(c2ccccc2)C2CC2)c(=O)o1 (stereo not drawn) [Example 160, 3-(α-cyclopropylbenzyl)-4-hydroxy-6-(α-ethyl-p-triflurormethylphenethyl)-2H-pyran-2-one] | < 10 | 12.2 | 39.4 | 78.2 | 89.7 | 92.1 |  |  |  |  |  |  |  |  |  |
| CCC(Cc1cccc(C(F)(F)F)c1)c1cc(O)c(C(c2ccccc2)C2CC2)c(=O)o1 (stereo not drawn) [Example 161, 3-(α-cyclopropylbenzyl)-4-hydroxy-6-(α-ethyl-m-triflurormethylphenethyl)-2H-pyran-2-one] | < 10 | < 10 | 41.8 | 78 | 96.5 | 105 |  |  |  |  |  |  |  |  |  |
| CCC(Cc1ccccc1C(F)(F)F)c1cc(O)c(C(c2ccccc2)C2CC2)c(=O)o1 (stereo not drawn) [Example 162, 3-(α-cyclopropylbenzyl)-4-hydroxy-6-(α-ethyl-o-triflurormethylphenethyl)-2H-pyran-2-one] | < 10 | < 10 | < 10 | 34.4 | 52 | 72.3 |  |  |  |  |  |  |  |  |  |
| CCC(Cc1ccc(OC)cc1)c1cc(O)c(C(c2ccccc2)C2CC2)c(=O)o1 (stereo not drawn) [Example 163, 3-(α-cyclopropylbenzyl)-4-hydroxy-6-(α-ethyl-p-methoxyphenethyl)-2H-pyran-2-one] | < 10 | 30.8 | 65.6 | 88.7 | 101 | 98.4 |  | 172 |  |  |  |  |  |  |  |
| CCC(Cc1cccc(OC)c1)c1cc(O)c(C(c2ccccc2)C2CC2)c(=O)o1 (stereo not drawn) [Example 164, 3-(α-cyclopropylbenzyl)-4-hydroxy-6-(α-ethyl-m-methoxyphenethyl)-2H-pyran-2-one] | < 10 | 16.5 | 50 | 68.8 | 84.8 | 88.2 |  | 185 |  |  |  |  |  |  |  |
| O=c1oc(CCc2ccc(F)cc2)cc(O)c1C(c1ccccc1)C1CC1 (stereo not drawn) [Example 165, 3-(α-cyclopropylbenzyl)-4-hydroxy-6-(p-fluorophenethyl)-2H-pyran-2-one] | < 10 | 10.5 | 32.9 | 60 | 80.7 | 94.1 |  |  |  |  |  |  |  |  |  |
| O=c1oc(CCc2ccc(Cl)cc2)cc(O)c1C(c1ccccc1)C1CC1 (stereo not drawn) [Example 166, 3-(α-cyclopropylbenzyl)-4-hydroxy-6-(p-chlorophenethyl)-2H-pyran-2-one] | < 10 | < 10 | < 10 | 39.8 | 62.3 | 80.9 | 97.8 |  |  |  |  |  |  |  |  |
| O=c1oc(CCc2ccc(Br)cc2)cc(O)c1C(c1ccccc1)C1CC1 (stereo not drawn) [Example 167, 3-(α-cyclopropylbenzyl)-4-hydroxy-6-(p-bromophenethyl)-2H-pyran-2-one] | < 10 | < 10 | 18.4 | 37.1 | 60.4 | 81.1 |  |  |  |  |  |  |  |  |  |
| C=CC(C1=C(O)CC(Cc2ccccc2)(c2ccccc2)OC1=O)c1ccccc1 (stereo not drawn) [Example 168, 5,6-Dihydro-4-hydroxy-6-phenyl-6-(phenylmethyl)-3-(1-phenyl-2-propenyl)-2H-pyran-2-one] | < 10 | < 10 | < 10 | 10.4 | 43.4 | 48 |  |  |  |  |  |  |  |  |  |
| CCC(C1=C(O)CC(Cc2ccccc2)(c2ccccc2)OC1=O)c1ccccc1 (stereo not drawn) [Example 169, 5,6-Dihydro-4-hydroxy-6-phenyl-6-(phenylmethyl)-3-(1-phenylpropyl)-2H-pyran-2-one] |  |  |  |  |  |  |  |  | < 10 | < 10 | < 10 | < 10 | 33.2 | 54.8 |  |
| CCCC1(CCc2ccccc2)CC(O)=C(C(/C=C/c2ccccc2)c2ccccc2)C(=O)O1 (stereo not drawn) [Example 170, 3-(1,3-Diphenyl-2-propenyl)-5,6-dihydro-4-hydroxy-6-(2-phenylethyl)-6-propyl-, (E)-2H-pyran-2-one] |  |  |  |  |  |  |  | 50 | < 10 | 29.6 | 62.1 | 86.7 | 95.1 | 93 |  |
| CCCC1(CCc2ccccc2)CC(O)=C(C(CCc2ccccc2)c2ccccc2)C(=O)O1 (stereo not drawn) [Example 171, 3-(1,3-Diphenylpropyl)-5,6-dihydro-4-hydroxy-6-(2-phenylethyl)-6-propyl-, 2H-pyran-2-one] |  |  |  |  |  |  |  | 50 | 11.8 | 39.5 | 68.9 | 82.2 | 96.8 | 94.6 |  |
| O=C1OC(Cc2ccccc2)(c2ccccc2)CC(O)=C1C(/C=C/c1ccccc1)c1ccccc1 (stereo not drawn) [Example 172, 3-(1,3-Diphenyl-2-propenyl)-5,6-dihydro-4-hydroxy-6-phenyl-6-(phenylmethyl)-2H-pyran-2-one] | < 10 | < 10 | 11.7 | 29.5 | 56.8 | 60.6 |  |  |  |  |  |  |  |  |  |
| CCCC1(CCc2ccccc2)CC(O)=C(/C(=C/c2ccccc2)c2ccccc2)C(=O)O1 (stereo not drawn) [Example 173, 3-(1,2-Diphenylethenyl)-5,6-dihydro-4-hydroxy-6-(2-phenylethyl)-6-propyl-, (E)-2H-pyran-2-one] | < 10 | < 10 |  | < 10 | 39.2 | 58.8 |  |  |  |  |  |  |  |  |  |
| C=CC(C1=C(O)CC(CCC)(CCc2ccccc2)OC1=O)c1ccccc1 (stereo not drawn) [Example 174, 5,6-Dihydro-4-hydroxy-6-(2-phenylethyl)-3-(1-phenyl-2-propenyl)-6-propyl-2H-pyran-2-one] | 23.5 | 52.8 | 81.8 | 102 | 110 | 106 |  | 16 |  |  |  |  |  |  |  |
| CCCC1(CCc2ccccc2)CC(O)=C(C(CC)c2ccccc2)C(=O)O1 (stereo not drawn) [Example 175, 5,6-Dihydro-4-hydroxy-6-(2-phenylethyl)-3-(1-phenylpropyl)-6-propyl-2H-pyran-2-one] |  |  |  |  |  |  |  |  | 19.7 | 46.7 | 78.8 | 99.3 | 107 | 105 | 35 |
